Molecular target: T1, CCR1 (Homo sapiens, UniProt P32246)
T1 sequence (P32246 1-355): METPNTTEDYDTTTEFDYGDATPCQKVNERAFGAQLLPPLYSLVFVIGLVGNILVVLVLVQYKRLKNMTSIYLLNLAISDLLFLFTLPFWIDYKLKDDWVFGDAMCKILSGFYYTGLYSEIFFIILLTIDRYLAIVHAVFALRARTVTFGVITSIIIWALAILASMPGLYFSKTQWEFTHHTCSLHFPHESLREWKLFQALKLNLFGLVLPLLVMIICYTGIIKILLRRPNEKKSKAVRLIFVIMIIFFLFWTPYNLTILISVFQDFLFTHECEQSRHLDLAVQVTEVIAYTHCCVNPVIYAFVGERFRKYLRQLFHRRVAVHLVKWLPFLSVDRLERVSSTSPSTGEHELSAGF
Assay: Method B: calcium flux in CCR1 transfected cells (Calcium 4 dye, […] FDSS6000), block of the CCR1/MIP-1α interaction
Format: cell-based
Settings: Method B: Calcium 4 dye, MIP-1alpha at EC80
Method in brief: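 Calcium flux on an FDSS6000 was triggered by MIP-1α at its EC80 in stably CCR1/G-alpha-16-expressing non-adherent cells. Before this, Calcium 4-loaded cells were preincubated with compound in HBSS, 20 mM HEPES pH 7.4, 1% DMSO: 30 min at 37 C plus 30 min at room temperature. Ten 4-fold doses began at 3,000 nM, with ±MIP-1α DMSO wells as controls.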

Row | IC50 [nM] | Compound
1 | 1 | C[C@H](NC(=O)c1cncc2c1cnn2-c1ccc(F)cc1)c1cc(N(C)CC(N)=O)nc(S(C)(=O)=O)c1 [1-(4-Fluorophenyl)-1H-pyrazolo[3,4-c]pyridine-4-carboxylic acid {(S)-1-[2-(carbamoylmethyl-methyl-amino)-6-methanesulfonyl-pyridin-4-yl]-ethyl}-amide]
2 | 0.6 | CC[C@H](NC(=O)c1cncc2c1cnn2-c1ccc(F)cc1)c1cnc(S(C)(=O)=O)s1 [1-(4-Fluorophenyl)-1H-pyrazolo[3,4-c]pyridine-4-carboxylic acid [(S)-1-(2-methanesulfonyl-thiazol-5-yl)-propyl]-amide]
3 | 38 | CC[C@H](NC(=O)c1cncc2c1cnn2-c1ccc(F)cc1)c1nc(C(=O)OC)co1 [2-((S)-1-{[1-(4-Fluorophenyl)-1H-pyrazolo[3,4-c]pyridine-4-carbonyl]-amino}-propyl)-oxazole-4-carboxylic acid methyl ester]
4 | 8 | CC[C@H](NC(=O)c1cncc2c1cnn2-c1ccc(F)cc1)c1nc(C(N)=O)cs1 [1-(4-Fluorophenyl)-1H-pyrazolo[3,4-c]pyridine-4-carboxylic acid [(S)-1-(4-carbamoyl-thiazol-2-yl)-propyl]-amide]
5 | 32 | C=CC[C@H](NC(=O)c1cncc2c1cnn2-c1ccc(F)cc1)c1ccncc1 [1-(4-Fluorophenyl)-1H-pyrazolo[3,4-c]pyridine-4-carboxylic acid ((S)-1-pyridin-4-yl-but-3-enyl)-amide]
6 | 0.3 | CC[C@H](NC(=O)c1cncc2c1cnn2-c1ccc(F)cc1)c1nc(S(C)(=O)=O)cs1 [1-(4-Fluorophenyl)-1H-pyrazolo[3,4-c]pyridine-4-carboxylic acid [(S)-1-(4-methanesulfonyl-thiazol-2-yl)-propyl]-amide]
7 | 0.3 | CC[C@H](NC(=O)c1cncc2c1cnn2-c1ccc(F)cc1)c1cc(N(C)CC(N)=O)nc(S(C)(=O)=O)c1 [1-(4-Fluorophenyl)-1H-pyrazolo[3,4-c]pyridine-4-carboxylic acid {(S)-1-[2-(carbamoylmethyl-methyl-amino)-6-methanesulfonyl-pyridin-4-yl]-propyl}-amide]
8 | 16 | CCC(CC)(NC(=O)c1cncc2c1cnn2-c1ccc(F)cc1)c1ccnc(S(C)(=O)=O)c1 [1-(4-Fluorophenyl)-1H-pyrazolo[3,4-c]pyridine-4-carboxylic acid [1-ethyl-1-(2-methanesulfonyl-pyridin-4-yl)-propyl]-amide]
9 | 1 | CC[C@H](NC(=O)c1cncc2c1cnn2-c1ccc(F)cc1)c1ccnc(C(N)=O)c1 [1-(4-Fluorophenyl)-1H-pyrazolo[3,4-c]pyridine-4-carboxylic acid [(S)-1-(2-carbamoyl-pyridin-4-yl)-propyl]-amide]
10 | 1 | CC[C@H](NC(=O)c1cncc2c1cnn2-c1ccc(F)cc1)c1ccc(S(C)(=O)=O)nc1 [1-(4-Fluorophenyl)-1H-pyrazolo[3,4-c]pyridine-4-carboxylic acid [(S)-1-(6-methanesulfonyl-pyridin-3-yl)-propyl]-amide]
11 | 24 | C[C@H](NC(=O)c1cncc2c1cnn2-c1ccc(F)cc1)c1nc(Br)cs1 [1-(4-Fluorophenyl)-1H-pyrazolo[3,4-c]pyridine-4-carboxylic acid [(S)-1-(4-bromo-thiazol-2-yl)-ethyl]-amide]
12 | 0.2 | CC[C@H](NC(=O)c1cncc2c1cnn2-c1ccc(F)cc1)c1ccc(O)c(S(C)(=O)=O)c1 [1-(4-Fluorophenyl)-1H-pyrazolo[3,4-c]pyridine-4-carboxylic acid [(S)-1-(4-hydroxy-3-methanesulfonyl-phenyl)-propyl]-amide]
13 | 6.3 | CC[C@H](NC(=O)c1cncc2c1cnn2-c1ccc(F)cc1)c1cncc(S(=O)(=O)CCC(=O)OC)c1 [3-[5-((S)-1-{[1-(4-Fluorophenyl)-1H-pyrazolo[3,4-c]pyridine-4-carbonyl]-amino}-propyl)-pyridine-3-sulfonyl]-propionic acid methyl ester]
14 | 5 | CC[C@H](NC(=O)c1cncc2c1cnn2-c1ccc(F)cc1)c1nc(C(=O)OC)cs1 [2-((S)-1-{[1-(4-Fluorophenyl)-1H-pyrazolo[3,4-c]pyridine-4-carbonyl]-amino}-propyl)-thiazole-4-carboxylic acid methyl ester]
15 | 3 | CS(=O)(=O)n1ccc2c(CNC(=O)c3cncc4c3cnn4-c3ccc(F)cc3)ccnc21 [1-(4-Fluorophenyl)-1H-pyrazolo[3,4-c]pyridine-4-carboxylic acid (1-methanesulfonyl-1H-pyrrolo[2,3-b]pyridin-4-ylmethyl)-amide]
16 | 10 | CCC(NC(=O)c1cncc2c1cnn2-c1ccc(F)cc1)C1CCN(C(C)=O)CC1 (centres unmarked) [1-(4-Fluorophenyl)-1H-pyrazolo[3,4-c]pyridine-4-carboxylic acid [1-(1-acetyl-piperidin-4-yl)-propyl]-amide]

Row | IC50 [nM] | Compound
17 | 12 | CC[C@H](NC(=O)c1cncc2c1cnn2-c1ccc(F)cc1)c1ccnc(N2CCS(=O)(=O)CC2)c1 [1-(4-Fluorophenyl)-1H-pyrazolo[3,4-c]pyridine-4-carboxylic acid {(S)-1-[2-(1,1-dioxo-1λ6-thiomorpholin-4-yl)-pyridin-4-yl]-propyl}-amide]
18 | 0.5 | CC[C@H](NC(=O)c1cncc2c1cnn2-c1ccc(F)cc1)c1ccc(Br)c(OC)c1 [1-(4-Fluorophenyl)-1H-pyrazolo[3,4-c]pyridine-4-carboxylic acid [(S)-1-(4-bromo-3-methoxy-phenyl)-propyl]-amide]
19 | 19 | O=C(NCc1ccc(Br)s1)c1cncc2c1cnn2-c1ccc(F)cc1 [1-(4-Fluorophenyl)-1H-pyrazolo[3,4-c]pyridine-4-carboxylic acid (5-bromo-thiophen-2-ylmethyl)-amide]
20 | 25 | O=C(NCc1cnc(Br)s1)c1cncc2c1cnn2-c1ccc(F)cc1 [1-(4-Fluorophenyl)-1H-pyrazolo[3,4-c]pyridine-4-carboxylic acid (2-bromo-thiazol-5-ylmethyl)-amide]
21 | 6 | CC[C@H](NC(=O)c1cncc2c1cnn2-c1ccc(F)cc1)c1ccncc1 [1-(4-Fluorophenyl)-1H-pyrazolo[3,4-c]pyridine-4-carboxylic acid ((S)-1-pyridin-4-yl-propyl)-amide]
22 | 11 | CS(=O)(=O)c1cc(CNC(=O)c2cncc3c2cnn3-c2ccc(F)cc2)cc(NCC(N)=O)n1 [1-(4-Fluorophenyl)-1H-pyrazolo[3,4-c]pyridine-4-carboxylic acid [2-(carbamoylmethyl-amino)-6-methanesulfonyl-pyridin-4-ylmethyl]-amide]
23 | 11 | CC[C@H](NC(=O)c1cncc2c1cnn2-c1ccc(F)cc1)c1cnn(C)c1 [1-(4-Fluorophenyl)-1H-pyrazolo[3,4-c]pyridine-4-carboxylic acid [(S)-1-(1-methyl-1H-pyrazol-4-yl)-propyl]-amide]
24 | 13 | CC[C@H](NC(=O)c1cncc2c1cnn2-c1ccc(F)cc1)c1ccnc(N2CCC(S(C)(=O)=O)CC2)c1 [1-(4-Fluorophenyl)-1H-pyrazolo[3,4-c]pyridine-4-carboxylic acid [(S)-1-(4-methanesulfonyl-3,4,5,6-tetrahydro-2H-[1,2′]bipyridinyl-4′-yl)-propyl]-amide]
25 | 11 | CCOC(=O)Cn1ccc([C@H](CC)NC(=O)c2cncc3c2cnn3-c2ccc(F)cc2)n1 [[3-((S)-1-{[1-(4-Fluorophenyl)-1H-pyrazolo[3,4-c]pyridine-4-carbonyl]-amino}-propyl)-pyrazol-1-yl]-acetic acid ethyl ester]
26 | 0.4 | COc1cc([C@H](C)NC(=O)c2cncc3c2cnn3-c2ccc(F)cc2)cc(S(C)(=O)=O)n1 [1-(4-Fluorophenyl)-1H-pyrazolo[3,4-c]pyridine-4-carboxylic acid [(S)-1-(2-methanesulfonyl-6-methoxy-pyridin-4-yl)-ethyl]-amide]
27 | 1 | C[C@H](NC(=O)c1cncc2c1cnn2-c1ccc(F)cc1)c1cccc(S(C)(=O)=O)c1 [1-(4-Fluorophenyl)-1H-pyrazolo[3,4-c]pyridine-4-carboxylic acid [(S)-1-(3-methanesulfonyl-phenyl)-ethyl]-amide]
28 | 3 | CC[C@H](NC(=O)c1cncc2c1cnn2-c1ccc(F)cc1)c1ccn(S(=O)(=O)c2ccc(C)cc2)c1 [1-(4-Fluorophenyl)-1H-pyrazolo[3,4-c]pyridine-4-carboxylic acid {(S)-1-[1-(toluene-4-sulfonyl)-1H-pyrrol-3-yl]-propyl}-amide]
29 | 27 | CCC(NC(=O)c1cncc2c1cnn2-c1ccc(F)cc1)c1nc(C(=O)OC)c(C)o1 (centres unmarked) [2-(1-{[1-(4-Fluorophenyl)-1H-pyrazolo[3,4-c]pyridine-4-carbonyl]-amino}-propyl)-5-methyl-oxazole-4-carboxylic acid methyl ester]
30 | 11 | CS(=O)(=O)c1cc([C@H](CC(O)CO)NC(=O)c2cncc3c2cnn3-c2ccc(F)cc2)ccn1 (single isomer, unassigned)
31 | 6 | CSc1ncc([C@H](C)NC(=O)c2cncc3c2cnn3-c2ccc(F)cc2)o1 [1-(4-Fluorophenyl)-1H-pyrazolo[3,4-c]pyridine-4-carboxylic acid [(S)-1-(2-methylsulfanyl-oxazol-5-yl)-ethyl]-amide]
32 | 25 | CCC(NC(=O)c1cncc2c1cnn2-c1ccc(F)cc1)c1nc(C(=O)NCC#N)co1 (centres unmarked) [1-(4-Fluorophenyl)-1H-pyrazolo[3,4-c]pyridine-4-carboxylic acid {1-[4-(cyanomethyl-carbamoyl)-oxazol-2-yl]-propyl}-amide]

From patent US8063065B2, “Azaindazole compounds as CCR1 receptor antagonists” (Boehringer Ingelheim International GmbH, priority 2008, dated 2011)
